# Test results taken from PMC3103600 (Journal of natural products, 2011).
# Read-outs that look alike come from different tables or passages of the source.
# Key:
# [1] = system: Her2, Akt, Raf-1, Hsp70, Hsp90 in MCF7 cells; test: Western blot of Hsp90 client proteins and heat shock proteins, MCF7; type: cell-based; settings: MCF7, 36 h
# [2] = target: Hsp90NT (N-terminal domain of Hsp90α, amino acids 1–241) (Homo sapiens, UniProt P07900); test: SPR binding to N-terminal domain of Hsp90
# [3] = target: Hsp90CT (C-terminal domain of Hsp90, amino acids 531–732) (Homo sapiens, UniProt P07900); test: SPR binding to C-terminal domain of Hsp90
# [4] = system: heme-regulated eIF2α kinase (HRI); test: Hsp90-dependent HRI maturation/activation in heme-deficient reticulocyte lysate; settings: 45 min
# [5] = system: Hsp90, Hsp70 and Cdc37 with HRI/K199R; type: biochemical; settings: low ionic strength wash
# [6] = system: Her2, Akt, Raf-1, Hsp70, Hsp90 in Sk-Br3 cells; test: Western blot of Hsp90 client proteins and heat shock proteins, SkBr3; type: cell-based; settings: Sk-Br3, 36 h
# native luciferase = native luciferase (Photinus pyralis, UniProt P08659); test: Counter-screen against native luciferase; type: biochemical, firefly
# Sequence of native luciferase (P08659 whole entry): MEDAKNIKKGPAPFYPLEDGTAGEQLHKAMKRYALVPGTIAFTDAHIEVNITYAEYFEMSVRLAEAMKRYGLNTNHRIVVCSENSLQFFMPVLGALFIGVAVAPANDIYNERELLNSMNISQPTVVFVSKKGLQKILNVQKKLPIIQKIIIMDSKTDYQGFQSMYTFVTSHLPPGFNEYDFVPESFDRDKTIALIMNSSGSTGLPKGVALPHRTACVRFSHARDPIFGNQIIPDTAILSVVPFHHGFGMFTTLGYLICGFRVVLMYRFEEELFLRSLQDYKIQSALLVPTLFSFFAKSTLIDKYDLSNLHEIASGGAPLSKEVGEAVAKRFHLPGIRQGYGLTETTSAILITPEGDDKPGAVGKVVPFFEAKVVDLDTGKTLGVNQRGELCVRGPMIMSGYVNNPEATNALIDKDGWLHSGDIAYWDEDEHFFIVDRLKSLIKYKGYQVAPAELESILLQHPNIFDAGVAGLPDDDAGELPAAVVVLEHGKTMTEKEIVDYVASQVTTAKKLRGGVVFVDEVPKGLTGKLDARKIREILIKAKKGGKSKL
# [7] = target: full length Hsp90 (human Hsp90β) (Homo sapiens, UniProt P08238); test: SPR binding to full length Hsp90; settings: full length Hsp90, 25 °C
# Sequence of full length Hsp90 (human Hsp90β) (P08238 whole entry): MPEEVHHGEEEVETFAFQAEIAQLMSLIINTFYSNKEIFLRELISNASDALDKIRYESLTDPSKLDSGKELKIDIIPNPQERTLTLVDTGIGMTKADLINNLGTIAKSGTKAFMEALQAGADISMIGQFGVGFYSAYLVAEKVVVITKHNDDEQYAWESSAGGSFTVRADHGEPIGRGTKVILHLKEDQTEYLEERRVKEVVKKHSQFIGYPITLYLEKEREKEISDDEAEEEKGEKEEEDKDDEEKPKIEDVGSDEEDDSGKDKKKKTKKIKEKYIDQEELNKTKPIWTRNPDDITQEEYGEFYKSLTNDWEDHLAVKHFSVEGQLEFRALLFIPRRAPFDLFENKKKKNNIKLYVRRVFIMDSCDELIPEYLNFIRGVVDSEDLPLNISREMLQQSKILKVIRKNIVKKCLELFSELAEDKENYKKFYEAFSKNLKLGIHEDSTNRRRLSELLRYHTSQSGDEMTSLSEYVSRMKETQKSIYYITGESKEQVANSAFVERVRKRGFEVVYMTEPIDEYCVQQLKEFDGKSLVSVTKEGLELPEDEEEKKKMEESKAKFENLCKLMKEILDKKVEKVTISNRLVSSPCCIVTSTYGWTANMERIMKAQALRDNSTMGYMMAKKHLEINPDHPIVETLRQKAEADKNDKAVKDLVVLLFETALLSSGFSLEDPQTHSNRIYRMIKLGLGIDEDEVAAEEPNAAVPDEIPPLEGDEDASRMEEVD
# [8] = system: heme-regulated eIF2α kinase (HRI); test: Stability of [35S]HRI in reticulocyte lysate; type: biochemical; settings: 45 min, heme-deficient lysate
smiles,measurement,setting,value
"CC(C)=CCC[C@]1(C)C=Cc2c(O)c3c(c(CC=C(C)C)c2O1)O[C@]12C(=C[C@@H]4C[C@H]1C(C)(C)O[C@@]2(C/C=C(/C)C(=O)O)C4=O)C3=O [Compound 1, (−)-gambogic acid]","depletion of Hsp90-dependent proteins Her2, Akt, Raf-1",[1],"deplete MCF7 and Sk-Br3 cells of Her2, Akt and Raf-1 in a concentration dependent fashion"
same,induction of Hsp90 and Hsp70 expression,[1],induced Hsp90 and Hsp70 expression
same,kd,[2]; 25 °C,0.01122(7) S^−1
same,kd,[2]; +20 µM GA in analyte buffer,0.0114(7) S^−1
same,KD,[3],no binding
same,ka,[3],no binding
same,kd,[3],no binding
same,effect on HRI maturation/activation,[4]; 50 µM,inhibited the maturation/ activation of HRI
same,"effect on binding of Hsp90, Hsp70, Cdc37 to HRI/K199R",[5]; 50 µM,"disrupted the binding of Hsp90, Hsp70, and Cdc37 to HRI"
same,"depletion of Hsp90-dependent proteins Her2, Akt, Raf-1",[6],"deplete MCF7 and Sk-Br3 cells of Her2, Akt and Raf-1 in a concentration dependent fashion"
same,induction of Hsp90 and Hsp70 expression,[6],induced Hsp90 and Hsp70 expression
same,direct effect on the activity of native luciferase,native luciferase,Neither celastrol nor 1 had any direct effect
same,kd,[7],0.0113(4) S^−1
"CC1=C(O)C(=O)C=C2C1=CC=C1[C@@]2(C)CC[C@@]2(C)[C@@H]3C[C@](C)(C(=O)O)CC[C@]3(C)CC[C@]12C [Compound 2, celastrol]",effect on HRI maturation/activation,[4]; 100 µM,inhibited the maturation/ activation of HRI
same,"effect on binding of Hsp90, Hsp70, Cdc37 to HRI/K199R",[5]; 100 µM,"disrupted the binding of Hsp90, Hsp70, and Cdc37 to HRI"
same,direct effect on the activity of native luciferase,native luciferase,Neither celastrol nor 1 had any direct effect
"COC1=C2C[C@@H](C)C[C@H](OC)[C@H](O)[C@@H](C)/C=C(\C)[C@H](OC(N)=O)[C@@H](OC)/C=C\C=C(/C)C(=O)NC(=CC1=O)C2=O [Compound 3, geldanamycin]",effect on HRI maturation/activation,[4]; 80 µM,inhibited the maturation/ activation of HRI
same,loss of [35S]HRI compared to the DMSO control,[8]; 80 µM,0%
"CO[C@@H]1[C@@H](OC(N)=O)[C@@H](O)[C@H](Oc2ccc3c(O)c(NC(=O)c4ccc(O)c(CC=C(C)C)c4)c(=O)oc3c2C)OC1(C)C [Compound 4, novobiocin]",effect on HRI maturation/activation,[4]; 4.0 mM,also inhibited the maturation/ activation of HRI
same,"effect on binding of Hsp90, Hsp70, Cdc37 to HRI/K199R",[5]; 4.0 mM,"disrupted the interaction of Hsp90, Hsp70 and Cdc37 with HRI/K199R"
"CO[C@H]1[C@H](OC(=O)c2ccc(C)[nH]2)[C@H](O)[C@@H](Oc2ccc3c(O)c(NC(=O)c4c[nH]c(C(=O)Nc5c(O)c6ccc(O[C@H]7OC(C)(C)[C@@H](OC)[C@H](OC(=O)c8ccc(C)[nH]8)[C@@H]7O)c(C)c6oc5=O)c4C)c(=O)oc3c2C)OC1(C)C [Compound 5, coumermycin A1]",effect on HRI maturation/activation,[4]; 400 µM,also inhibited the maturation/ activation of HRI
same,"effect on binding of Hsp90, Hsp70, Cdc37 to HRI/K199R",[5]; 400 µM,"disrupted the interaction of Hsp90, Hsp70 and Cdc37 with HRI/K199R"
"[Na+].[Na+].[O]=[Mo](=[O])([O-])[O-] [molybdate, sodium molybdate]",effect on HRI maturation/activation,[4]; 20 mM,inhibited the maturation/ activation of HRI
same,"effect on binding of Hsp90, Hsp70, Cdc37 to HRI/K199R",[5]; 20 mM,"stabilized the binding of Hsp90 and Cdc37 to HRI/K199R, while not affecting the interaction of Hsp70 with HRI/K199R"
same,loss of [35S]HRI compared to the DMSO control,[8]; 20 mM,10%
